Legend:
Assay in all cases: Challenge test with moulds in MOS / MAS; for Week 1 (Log cfu/g): key: VG: growth; NVG: no growth; for Week 2 (Log cfu/g): key: VG: growth; NVG: no growth; for Week 3 (Log cfu/g): key: VG: growth; NVG: no growth; for Week 4 (Log cfu/g): key: VG: growth; NVG: no growth
Type in all cases: cell-based
Conditions in all cases: for Week 0 (Log cfu/g) / Week 1 (Log cfu/g) / Week 2 (Log cfu/g) / Week 3 (Log cfu/g) / Week 4 (Log cfu/g): 0.10%; for mould growth: KS 0.10%
[1] = tested on: Eurotium amstelodami (mould); for Week 1 (Log cfu/g): key: VG: growth; NVG: no growth; for Week 2 (Log cfu/g): key: VG: growth; NVG: no growth; for Week 3 (Log cfu/g): key: VG: growth; NVG: no growth; for Week 4 (Log cfu/g): key: VG: growth; NVG: no growth
Method: (§1) Target microorganisms used for the challenge tests (CT) were Zygosaccharomyces bailii (yeast), Aspergillus niger (mould), Penicillium nalgiovense (mould) and Eurotium amstelodami (mould).
(§2) Stock culture of the mould (mould spores suspended in Tryptone Salt 0.1% diluent) was revived on RBA plates by doing a 3-point inoculation. The inoculated RBA plates were incubated at 30° C. for 36 hours or until the colonies sporulated. The spores were then aseptically sub-cultured onto PDA plates for mass harvesting of the spores. The inoculated PDA plates were then incubated for 30° C. for 36 hours or until the colonies sporulated. Then, the spores were aseptically harvested with a sterile cotton swabs and suspended in sterile Tryptone Salt 0.1% diluent. The suspensions were analyzed for mould spore counts on DG18 plates as well as for microbial contamination on PCA with Cycloheximide by spread plating 0.1-0.5 ml of suspension onto the agar plates respectively. Before the challenge test is initiated, the suspension inoculated with the mould spores was diluted aseptically with sterile Tryptone Salt 0.1% to the desired level such that the inoculation level in the product would be 2-3 log of colony-forming-units (cfu) of moulds per gram of product.
(§3) Challenge Test with moulds was according to the following steps: 1) Add 100 g of MOS into a 250 ml sterile Schott bottle with screw-cap cover; 2) Add 0.1 to 2 ml of mould (A. niger/P. nalgiovence/E. amstelodami) inoculum to meet the target inoculum of 10^2-10^3 cfu/g of MOS into the 100 g MOS and shake to mix well; 3) Pour 35 g of the inoculated MOS into a petri dish. Perform this in duplicate; 4) Pipette 1 g of inoculated MOS from the Schott bottle into 9 ml sterile Tryptone Salt 0.1% diluents and vortex. Perform this in duplicate; 5) Plate 0.1-0.5 ml of inoculated Tryptone Salt 0.1% onto DG18 plates at appropriate dilutions by Spread Plate Method. Incubate the agar plates at 25° C. for 5 days to enumerate the initial mould count; 6) Incubate the inoculated MOS in petri dishes at 30° C. for a week. Monitor for mould growth by visual observation after one week. Perform this mould growth monitoring for a period of 4 weeks; 7) The control was prepared by repeating steps 3 to 6 without using any inoculum. The control was plated onto PCA with Cycloheximide plates.
(§4) The method for producing MAS was the same as for the MOS production in experiment 4. The preparation of the microorganism cultures as well as the challenge tests were identical to the ones described in experiment 4 as well.

[2] = tested on: Penicillium nalgiovense (mould); for Week 1 (Log cfu/g): key: VG: growth; NVG: no growth; for Week 2 (Log cfu/g): key: VG: growth; NVG: no growth; for Week 3 (Log cfu/g): key: VG: growth; NVG: no growth; for Week 4 (Log cfu/g): key: VG: growth; NVG: no growth
Method: as §1, §2, §3, §4

[3] = tested on: Aspergillus niger (mould); for Week 1 (Log cfu/g): key: VG: growth; NVG: no growth; for Week 2 (Log cfu/g): key: VG: growth; NVG: no growth; for Week 3 (Log cfu/g): key: VG: growth; NVG: no growth; for Week 4 (Log cfu/g): key: VG: growth; NVG: no growth
Method: as §1, §2, §3, §4

[4] = MAGGI Abalone Sauce, age 0 month
[5] = MAGGI Abalone Sauce, age 1 month
[6] = MAGGI Abalone Sauce, age 3 month
[7] = MAGGI Abalone Sauce, age 6 month
[8] = MAGGI Abalone Sauce, age 10 month
[9] = MAGGI Abalone Sauce, age 12 month
[10] = MAGGI Abalone Sauce, up to 12 months, clove leaf oil 0.06 wt % and 0.15 wt %
[11] = MAGGI Oyster Sauce, garlic EO 0.06 wt % and 0.12 wt %
[12] = MAGGI Oyster Sauce, age 0 month

SMILES: C/C=C/C=C/C(=O)[O-].[K+] [KS, potassium sorbate]
- Week 0 (Log cfu/g) [1, 4]: 2.93 Log cfu/g
- Week 1 (Log cfu/g) [1, 4]: NVG
- Week 2 (Log cfu/g) [1, 4]: NVG
- Week 3 (Log cfu/g) [1, 4]: NVG
- Week 4 (Log cfu/g) [1, 4]: NVG
- Week 0 (Log cfu/g) [1, 5]: 1.54 Log cfu/g
- Week 1 (Log cfu/g) [1, 5]: NVG
- Week 2 (Log cfu/g) [1, 5]: NVG
- Week 3 (Log cfu/g) [1, 5]: NVG
- Week 4 (Log cfu/g) [1, 5]: NVG
- Week 0 (Log cfu/g) [1, 6]: 2.69 Log cfu/g
- Week 1 (Log cfu/g) [1, 6]: NVG
- Week 2 (Log cfu/g) [1, 6]: NVG
- Week 3 (Log cfu/g) [1, 6]: NVG
- Week 4 (Log cfu/g) [1, 6]: NVG
- Week 0 (Log cfu/g) [1, 7]: 2.67 Log cfu/g
- Week 1 (Log cfu/g) [1, 7]: NVG
- Week 2 (Log cfu/g) [1, 7]: NVG
- Week 3 (Log cfu/g) [1, 7]: NVG
- Week 4 (Log cfu/g) [1, 7]: NVG
- Week 0 (Log cfu/g) [1, 8]: 3.80 Log cfu/g
- Week 1 (Log cfu/g) [1, 8]: NVG
- Week 2 (Log cfu/g) [1, 8]: NVG
- Week 3 (Log cfu/g) [1, 8]: NVG
- Week 4 (Log cfu/g) [1, 8]: NVG
- Week 0 (Log cfu/g) [1, 9]: 2.38 Log cfu/g
- Week 1 (Log cfu/g) [1, 9]: NVG
- Week 2 (Log cfu/g) [1, 9]: NVG
- Week 3 (Log cfu/g) [1, 9]: NVG
- Week 4 (Log cfu/g) [1, 9]: NVG
- mould growth [1, 10]: not detected
- mould growth [1, 11]: not detected
- Week 0 (Log cfu/g) [1, 12]: 2.204 Log cfu/g
- Week 1 (Log cfu/g) [1, 12]: NVG
- Week 2 (Log cfu/g) [1, 12]: NVG
- Week 3 (Log cfu/g) [1, 12]: NVG
- Week 4 (Log cfu/g) [1, 12]: NVG
- Week 0 (Log cfu/g) [2, 4]: 1.54 Log cfu/g
- Week 1 (Log cfu/g) [2, 4]: NVG
- Week 2 (Log cfu/g) [2, 4]: NVG
- Week 3 (Log cfu/g) [2, 4]: NVG
- Week 4 (Log cfu/g) [2, 4]: NVG
- Week 0 (Log cfu/g) [2, 5]: 1.73 Log cfu/g
- Week 1 (Log cfu/g) [2, 5]: NVG
- Week 2 (Log cfu/g) [2, 5]: NVG
- Week 3 (Log cfu/g) [2, 5]: NVG
- Week 4 (Log cfu/g) [2, 5]: NVG
- Week 0 (Log cfu/g) [2, 6]: 2.71 Log cfu/g
- Week 1 (Log cfu/g) [2, 6]: NVG
- Week 2 (Log cfu/g) [2, 6]: NVG
- Week 3 (Log cfu/g) [2, 6]: NVG
- Week 4 (Log cfu/g) [2, 6]: NVG
- Week 0 (Log cfu/g) [2, 7]: 2.03 Log cfu/g
- Week 1 (Log cfu/g) [2, 7]: NVG
- Week 2 (Log cfu/g) [2, 7]: NVG
- Week 3 (Log cfu/g) [2, 7]: NVG
- Week 4 (Log cfu/g) [2, 7]: NVG
- Week 0 (Log cfu/g) [2, 8]: 3.86 Log cfu/g
- Week 1 (Log cfu/g) [2, 8]: NVG
- Week 2 (Log cfu/g) [2, 8]: NVG
- Week 3 (Log cfu/g) [2, 8]: NVG
- Week 4 (Log cfu/g) [2, 8]: NVG
- Week 0 (Log cfu/g) [2, 9]: 3.26 Log cfu/g
- Week 1 (Log cfu/g) [2, 9]: NVG
- Week 2 (Log cfu/g) [2, 9]: NVG
- Week 3 (Log cfu/g) [2, 9]: NVG
- Week 4 (Log cfu/g) [2, 9]: NVG
- mould growth [2, 10]: not detected
- mould growth [2, 11]: not detected
- Week 0 (Log cfu/g) [2, 12]: 4.079 Log cfu/g
- Week 1 (Log cfu/g) [2, 12]: NVG
- Week 2 (Log cfu/g) [2, 12]: NVG
- Week 3 (Log cfu/g) [2, 12]: NVG
- Week 4 (Log cfu/g) [2, 12]: NVG
- Week 0 (Log cfu/g) [3, 4]: 1.9 Log cfu/g
- Week 1 (Log cfu/g) [3, 4]: NVG
- Week 2 (Log cfu/g) [3, 4]: NVG
- Week 3 (Log cfu/g) [3, 4]: NVG
- Week 4 (Log cfu/g) [3, 4]: NVG
- Week 0 (Log cfu/g) [3, 5]: 1.15 Log cfu/g
- Week 1 (Log cfu/g) [3, 5]: NVG
- Week 2 (Log cfu/g) [3, 5]: NVG
- Week 3 (Log cfu/g) [3, 5]: NVG
- Week 4 (Log cfu/g) [3, 5]: NVG
- Week 0 (Log cfu/g) [3, 6]: 2.19 Log cfu/g
- Week 1 (Log cfu/g) [3, 6]: NVG
- Week 2 (Log cfu/g) [3, 6]: NVG
- Week 3 (Log cfu/g) [3, 6]: NVG
- Week 4 (Log cfu/g) [3, 6]: NVG
- Week 0 (Log cfu/g) [3, 7]: 2.16 Log cfu/g
- Week 1 (Log cfu/g) [3, 7]: NVG
- Week 2 (Log cfu/g) [3, 7]: NVG
- Week 3 (Log cfu/g) [3, 7]: NVG
- Week 4 (Log cfu/g) [3, 7]: NVG
- Week 0 (Log cfu/g) [3, 8]: 3.67 Log cfu/g
- Week 1 (Log cfu/g) [3, 8]: NVG
- Week 2 (Log cfu/g) [3, 8]: NVG
- Week 3 (Log cfu/g) [3, 8]: NVG
- Week 4 (Log cfu/g) [3, 8]: NVG
- Week 0 (Log cfu/g) [3, 9]: 2.96 Log cfu/g
- Week 1 (Log cfu/g) [3, 9]: NVG
- Week 2 (Log cfu/g) [3, 9]: NVG
- Week 3 (Log cfu/g) [3, 9]: NVG
- Week 4 (Log cfu/g) [3, 9]: NVG
- mould growth [3, 10]: not detected
- mould growth [3, 11]: not detected
- Week 0 (Log cfu/g) [3, 12]: 3.114 Log cfu/g
- Week 1 (Log cfu/g) [3, 12]: NVG
- Week 2 (Log cfu/g) [3, 12]: NVG
- Week 3 (Log cfu/g) [3, 12]: NVG
- Week 4 (Log cfu/g) [3, 12]: NVG

Source: patent publication US8859018B2, “Delivery carrier for antimicrobial essential oils” (Nestec S.A., priority 2010, dated 2014)
